This assay deals with influenza A (H1N1). The experiment in a line: Influenza virus mouse model, feed supplemented with N5G. It is filed as in vivo. The text has this: The overall purpose of the study was to determine whether the N5G nutritional supplement has the ability to have significant impact on clinical disease outcomes caused by influenza virus in a mouse animal model.
The experimental design included adherence to a strict feeding schedule, which included 30 days of acclimation of mice to a defined base feed (AIN-93M) provided by Purina TestDiet, Inc. Control animals remained continuously fed with the defined base feed, while the experimental mouse group was fed with the base feed supplemented with 0.35% of N5G.
Experimental and control mouse groups were infected intranasally with 107.5 TCID50 influenza A (H1N1) with each mouse receiving 5iL of viral inoculum per nostril. The experimental parameters followed during the study were: 1) mouse weight changes; 2) food intake changes; 3) clinical signs of disease; 4) lung tissue pathology; 5) lung consolidation scores; 6) changes in viral loads.
Overall, the experimental design was executed without any major obstacles. As expected, there was minor occasional wasting of feed in some cages (mice chewed on feed which was dropped on the bottom of the cage). In every instance noted on daily observations, the residual feed was weighed, but it was excluded in any statistical calculations as well as in the calculation of baseline feed intake.
As expected, all influenza infected mice developed clinical signs of disease starting 2 days post infection. Clinical signs included: 1) ruffled fur, 2) inactivity, 3) hunching, 4) death, 5) weight loss, and 6) loss of appetite.
Clinical signs 1-4 were scored by two independent observers using a scale of 0-5. The cumulative scores were plotted and statistically analyzed. Statistical analyses were performed using SAS v.9.1.3. An analysis of variance (ANOVA) of a repeated measures design was calculated in a split-plot arrangement of treatments, with the treatment group on the main plot, and the subplot including day and treatment by day interactions. Interaction of pairwise comparisons of least square means was performed with a pairwise t-test with pre-planned comparisons. This statistical methodology was used for all comparisons in the study.
D. The most important aspect of influenza infections is the resultant lung immunopathology. Typically, viral replication as well as infiltration of lymphocytes causes substantial damage to lung tissues. In fact, it is believed that infiltration of lymphocytes and their negative effects on lungs tissues is the most important parameter of influenza-related morbidity and mortality in humans. Consequently, particular care was taken to examine the tissues of mice for signs of histopathological changes. The following evaluation criteria were utilized to score these changes: 1) Lung consolidation scores (LCS); 2) Histopathological scores (HS). LCS were rated as follows: grade 1: no plum coloration; grade 2: minimum plum coloration; grade 3: medium plum coloration; grade 4: maximum plum coloration. HS were rated as follows: Grade 0: no overt histological change; grade 1+: only bronchial/bronchiolar and/or peri-bronchial/bronchiolar/vascular changes; grade 2+: 1-10% pulmonary parenchyma affected; grade 3+: 11-30% pulmonary parenchyma affected; grade 4:+: 31-50% pulmonary parenchyma affected; grade 5+: greater than 50% pulmonary parenchyma affected.

As to `O=C(CO)N[C@H]1[C@H]([C@H](O)[C@H](O)CO)O[C@](O)(C(=O)O)C[C@@H]1O` [NGNA, n-glycolylneuraminic acid], the “Viral titers from lung homogenates” value (mice, 2 days post infection, treated and untreated) is “less than 100 plaque forming units (PFU) per 250iL of homogenate”. Also, the “Clinical signs 1-4 scores (ruffled fur, inactivity, hunching, death), treated versus untreated” value (mice, base feed with 0.35% N5G, days 6-8 post infection, FIG. 3) is recorded as “Statistically significant differences”. Besides, under “mice, day 6 post infection, grades 0 to 5+, FIG. 7”, the “Histopathological scores, treated versus untreated” value is recorded as “statistically significant difference”. The “Viral titers from lung homogenates, treated versus untreated” value (mice, days 2, 4, 6, 8 and 21 post infection, one mouse per group per time point) is given as “No significant differences”. For the setting “mice, days 3-9 post infection, FIG. 5”, the “% change in mouse weights, untreated versus treated” value is given as “highly significant reduction in body weights was observed in the control mouse group”. The “% daily feed intake” value (mice, days 5-6 post infection, FIG. 4, group with the loss not stated) is given as “statistically significant loss of appetite”. In addition, the “Lung consolidation scores, treated versus untreated” value (mice, grades 1-4, FIG. 6) is given as ““trend” toward a healthier status of treated versus untreated mice. However, there results were not statistically significant”. Moreover, where the note is “mouse experimental model, overall conclusion”, the “Effect on ameliorating clinical symptoms and adverse pathological implication of influenza infection” value is listed as “significant effect”.

For the origin of these results see patent US11672814B2, “NGNA compositions and methods of use” (priority 2008, dated 2023).
